Test results reported in patent publication US20230192686A1, “1H-PYRROLO[2,3-B]PYRIDINES AND PREPARATION AND USES THEREOF” (BioSplice Therapeutics, Inc., priority 2021, published 2023).

Molecular target: recombinant DYRK1A kinase (Homo sapiens, UniProt Q13627)
Assay: DYRK1A kinase assay (Ser/Thr 18 peptide Z-lyte FRET)
Type: biochemical
Settings: DYRK1A kinase activity; 15 μM ATP, 4 μM Ser/Thr peptide 18, one hour at room temperature
Procedure: Representative compounds were screened using the assay procedure for DYRK1A kinase activity as described below.
Each compound was dissolved in DMSO as a 10 mM stock and used to prepare compound source plates. Serial dilution (1:3, 11-point dose-response curves from 10 μM to 0.00016 μM) and compound transfer was performed using the ECHO 550 (Labcyte, Sunnyvale, Calif.) into 1536-well black-walled round bottom plates (Corning).
The DYRK1A kinase assay was run using the Ser/Thr 18 peptide Z-lyte assay kit according to manufacturer's instructions (Life Technologies—a Division of Thermo-Fisher). This is a non-radioactive assay using fluorescence resonance energy transfer (FRET) between coumarin and fluorescein to detect kinase activity which is represented as a ratio of coumarin emission/fluorescein emission.
Briefly, recombinant DYRK1A kinase, ATP and Ser/Thr peptide 18 were prepared in 1× Kinase buffer to final concentrations of 0.25 μg/mL, 15 μM, and 4 μM respectively. The mixture was allowed to incubate with the representative compounds for one hour at room temperature. All reactions were performed in duplicate. Unphosphorylated (“0% Control”) and phosphorylated (“100% control”) forms of Ser/Thr 18 served as control reactions. Additionally, an 11-point dose-response curve of Staurosporine (1 uM top) was run to serve as a positive compound control.
After incubation, Development Reagent A was diluted in Development Buffer then added to the reaction and allowed to further incubate for one hour at room temperature. The plate was read at Ex 400 Em 455 to detect the coumarin signal and Ex 400 Em 520 to measure the signal (EnVision Multilabel Plate Reader, PerkinElmer).
The Emission ratio (Em) was calculated as a ratio of the coumarin (C) emission signal (at 445 nm)/Fluorescein (F) emission signal (at 520 nm). The percent phosphorylation was then calculated using the following formula: [1−((Em ratio×F100%)−C100%)/((C0%−C100%)+(Em ratio×(F100%−F0%)))]. Dose-response curves were generated, and inhibitory concentration (IC50) values were calculated using non-linear regression curve fit in the Dotmatics' Studies Software (Bishops Stortford, UK).

## CN1CCC(NC(=O)c2cnc3[nH]cc(-c4ccc5ncncc5c4)c3c2)CC1 [Compound 482, N-(1-Methylpiperidin-4-yl)-3-(quinazolin-6-yl)-1H-pyrrolo[2,3-b] pyridine-5-carboxamide]
  EC50: 15 nM

## CN1CCC(N(C)C(=O)c2cnn3ccc(-c4c[nH]c5ncccc45)cc23)CC1 [Compound 46, N-Methyl-N-(1-methylpiperidin-4-yl)-5-(1H-pyrrolo[2,3-b]pyridin-3-yl)pyrazolo[1,5-a]pyridine-3-carboxamide]
  EC50: 5 nM

## CN1CCN(c2cc(-c3cnc4[nH]cc(-c5ccc6c(c5)C5(CCCCC5)NC6=O)c4c3)ccn2)CC1 [Compound 1398, 6′-(5-(2-(4-Methylpiperazin-1-yl)pyridin-4-yl)-1H-pyrrolo[2,3-b]pyridin-3-yl)spiro[cyclohexane-1,1′-isoindolin]-3′-one]
  EC50: 4 nM

## OCc1cnc2ccc(-c3c[nH]c4ncccc34)nn12 [Compound 35, (6-(1H-Pyrrolo[2,3-b]pyridin-3-yl)imidazo[1,2-b]pyridazin-3-yl) methanol]
  EC50: 2 nM

## CN1CCN(Cc2cnc3[nH]cc(-c4ccc5nccnc5c4)c3c2)CC1 [Compound 439, 6-(5-((4-Methylpiperazin-1-yl)methyl)-1H-pyrrolo[2,3-b]pyridin-3-yl) quinoxaline]
  EC50: 16 nM

## CN1CCN(c2cccc(Nc3ccc4c(-c5ccc6ncccc6c5)c[nH]c4n3)c2)CC1 [Compound 1950, N-(3-(4-Methylpiperazin-1-yl)phenyl)-3-(quinolin-6-yl)-1H-pyrrolo [2,3-b]pyridin-6-amine]
  EC50: 38 nM

## CN1CCC(C(=O)Nc2ccc3c(-c4ccnc(N5CCN(C)CC5)c4)c[nH]c3n2)CC1 [Compound 1855, 1-Methyl-N-(3-(2-(4-methylpiperazin-1-yl)pyridin-4-yl)-1H-pyrrolo [2,3-b]pyridin-6-yl)piperidine-4-carboxamide]
  EC50: 30 nM

## c1cnc2[nH]cc(-c3ccc4ncnc(N5CCNC6(CC6)C5)c4c3)c2c1 [Compound 96, 6-(1H-Pyrrolo[2,3-b]pyridin-3-yl)-4-(4,7-diazaspiro[2.5]octan-7-yl) quinazoline]
  EC50: 1 nM

## Cc1ccc2c(-c3cc(F)c4nc(C)n(C(C)C)c4c3)c[nH]c2n1 [Compound 1459, 4-Fluoro-1-isopropyl-2-methyl-6-(6-methyl-1H-pyrrolo[2,3-b]pyridin-3-yl)-1H-benzo[d]imidazole]
  EC50: 4 nM

## O=C(c1ccnc2ccc(-c3c[nH]c4ncccc34)cc12)N1CCNC2(CC2)C1 [Compound 88, (6-(1H-Pyrrolo[2,3-b]pyridin-3-yl)quinolin-4-yl)(4,7-diazaspiro[2.5]octan-7-yl)methanone]
  EC50: 3 nM

## CN1C2CCC1CN(C(=O)c1cnc3[nH]cc(-c4ccn5nccc5c4)c3c1)C2 [Compound 2049, (8-Methyl-3,8-diazabicyclo[3.2.1]octan-3-yl)(3-(pyrazolo[1,5-a]pyridin-5-yl)-1H-pyrrolo[2,3-b]pyridin-5-yl)methanone]
  EC50: 45 nM

## CC1(C)CNC(=O)c2ccc(-c3c[nH]c4ncccc34)cc21 [Compound 82, 4,4-Dimethyl-6-(1H-pyrrolo[2,3-b]pyridin-3-yl)-3,4-dihydroisoquinolin-1(2H)-one]
  EC50: 6 nM

## CN1Cc2cc(-c3c[nH]c4ncccc34)ccc2C1=O [Compound 76, 2-Methyl-5-(1H-pyrrolo[2,3-b]pyridin-3-yl)isoindolin-1-one]
  EC50: 31 nM

## CN1CCN(c2cccc(Nc3ccc4c(-c5ccc6c(c5)CCCO6)c[nH]c4n3)c2)CC1 [Compound 1945, 3-(Chroman-6-yl)-N-(3-(4-methylpiperazin-1-yl)phenyl)-1H-pyrrolo [2,3-]pyridin-6-amine]
  EC50: 125 nM

## CN1CC2CCC(C1)N2C(=O)c1cnn2ccc(-c3c[nH]c4ncccc34)cc12 [Compound 59, (5-(1H-Pyrrolo[2,3-b]pyridin-3-yl)pyrazolo[1,5-a]pyridin-3-yl)(3-methyl-3,8-diazabicyclo[3.2.1]octan-8-yl)methanone]
  EC50: 81 nM

## c1cnc2ccc(-c3c[nH]c4nccc(NCc5ccc(-n6ccnc6)nc5)c34)cc2c1 [Compound 2052, N-((6-(1H-Imidazol-1-yl)pyridin-3-yl)methyl)-3-(quinolin-6-yl)-1H-pyrrolo[2,3-b]pyridin-4-amine]
  EC50: 34 nM

## COCCN1CCC(NC(=O)c2cnn3ccc(-c4c[nH]c5ncccc45)cc23)CC1 [Compound 50, N-(1-(2-Methoxyethyl)piperidin-4-yl)-5-(1H-pyrrolo[2,3-b]pyridin-3-yl)pyrazolo[1,5-a]pyridine-3-carboxamide]
  EC50: 1 nM

## c1cncc(-c2cnn3ccc(-c4c[nH]c5ncccc45)cc23)c1 [Compound 38, 3-(3-(Pyridin-3-yl)pyrazolo[1,5-a]pyridin-5-yl)-1H-pyrrolo[2,3-b] pyridine]
  EC50: 2 nM

## Cc1nc2c(F)cc(-c3c[nH]c4ncc(-c5cc(F)c(F)c(N6CCNCC6)c5)cc34)cc2n1C(C)C [Compound 997, 6-(5-(3,4-Difluoro-5-(piperazin-1-yl)phenyl)-1H-pyrrolo[2,3-b]pyridin-3-yl)-4-fluoro-1-isopropyl-2-methyl-1H-benzo[d]imidazole]
  EC50: 6 nM

## O=C(c1cnn2ccc(-c3c[nH]c4ncccc34)cc12)N1CCOCC1 [Compound 60, (5-(1H-Pyrrolo[2,3-b]pyridin-3-yl)pyrazolo[1,5-a]pyridin-3-yl) (morpholino)methanone]
  EC50: 6 nM

## Clc1ccc2c(-c3ccc4ncccc4c3)c[nH]c2n1 [Compound 1446, 6-(6-Chloro-1H-pyrrolo[2,3-b]pyridin-3-yl)quinoline]
  EC50: 11 nM

## CN1CCN(c2cc(-c3cnc4[nH]cc(-c5ccc6nccn6c5)c4c3)ccn2)CC1 [Compound 1372, 6-(5-(2-(4-Methylpiperazin-1-yl)pyridin-4-yl)-1H-pyrrolo[2,3-b]pyridin-3-yl)imidazo[1,2-a]pyridine]
  EC50: 1 nM

## Cc1nc2c(F)cc(-c3c[nH]c4ncc(-c5ccccc5)cc34)cc2n1C(C)C [Compound 913, 4-Fluoro-1-isopropyl-2-methyl-6-(5-phenyl-1H-pyrrolo[2,3-b]pyridin-3-yl)-1H-benzo[d]imidazole]
  EC50: 4 nM

## Cc1nc2c(F)cc(-c3c[nH]c4ncc(CN5CCN(C)CC5)cc34)cc2n1C(C)C [Compound 409, 4-Fluoro-1-isopropyl-2-methyl-6-(5-((4-methylpiperazin-1-yl)methyl)-1H-pyrrolo[2,3-b]pyridin-3-yl)-1H-benzo[d]imidazole]
  EC50: 13 nM

## c1nc2ccc(-c3c[nH]c4nc(C5CCC5)ccc34)cn2n1 [Compound 1547, 6-(6-Cyclobutyl-1H-pyrrolo[2,3-b]pyridin-3-yl)-[1,2,4]triazolo[1,5-a] pyridine]
  EC50: 121 nM

## O=C(c1cnn2ccc(-c3c[nH]c4ncccc34)cc12)N1CC2CNCC2C1 (stereo not drawn) [Compound 63, (5-(1H-Pyrrolo[2,3-b]pyridin-3-yl)pyrazolo[1,5-a]pyridin-3-yl) (hexahydropyrrolo[3,4-c]pyrrol-2(1H)-yl)methanone]
  EC50: 5 nM

## Cc1cnc2[nH]cc(-c3ccc4nccn4c3)c2c1 [Compound 280, 6-(5-methyl-1H-pyrrolo[2,3-b]pyridin-3-yl)imidazo[1,2-a]pyridine]
  EC50: 4 nM

## c1cnc2[nH]cc(-c3ccc4nccn4c3)c2c1 [Compound 12, 6-(1H-Pyrrolo[2,3-b]pyridin-3-yl)imidazo[1,2-a]pyridine]
  EC50: 3 nM

## CN1C2CCC1CN(C(=O)c1cnn3ccc(-c4c[nH]c5ncccc45)cc13)C2 [Compound 58, (5-(1H-Pyrrolo[2,3-b]pyridin-3-yl)pyrazolo[1,5-a]pyridin-3-yl)(8-methyl-3,8-diazabicyclo[3.2.1]octan-3-yl)methanone]
  EC50: 12 nM

## CN1CCC(NC(=O)c2cnn3ccc(-c4c[nH]c5nc(-c6cnn(C)c6)ccc45)cc23)CC1 [Compound 1976, 5-(6-(1-Methyl-1H-pyrazol-4-yl)-1H-pyrrolo[2,3-b]pyridin-3-yl)-N-(1-methylpiperidin-4-yl)pyrazolo[1,5-a]pyridine-3-carboxamide]
  EC50: 10 nM

## c1nc2ccc(-c3c[nH]c4nc(C5CC5)ccc34)cn2n1 [Compound 1505, 6-(6-Cyclopropyl-1H-pyrrolo[2,3-b]pyridin-3-yl)-[1,2,4]triazolo[1,5-a] pyridine]
  EC50: 100 nM

## O=C(c1cnn2ccc(-c3c[nH]c4nc(C5CCC5)ccc34)cc12)N1CCCCC1 [Compound 1558, (5-(6-Cyclobutyl-1H-pyrrolo[2,3-b]pyridin-3-yl)pyrazolo[1,5-a]pyridin-3-yl)(piperidin-1-yl)methanone]
  EC50: 291 nM

## CC1(C)CC(=O)c2ccc(-c3c[nH]c4ncccc34)cc2O1 [Compound 80, 2,2-Dimethyl-7-(1H-pyrrolo[2,3-b]pyridin-3-yl)chroman-4-one]
  EC50: 31 nM
